Earlier results as cited in patent US20070254015A1, “Sanitizing surfaces” (Searete LLC, a limited liability corporation of the State …, priority 2006, published 2007).
Read-outs that look alike come from different tables or passages of the source.

Columns and labels:
[1] = system: Human Immunodeficiency Virus (HIV-1)
[2] = system: Hepatitis B Virus
[3] = Table I, liquid sanitizing agents
[4] = Table II, liquid sanitizing agents for gloves

Q: Which results are given for `CCO` [Ethyl Alcohol]?
A: Known Minimum Concentration by Volume for Immediately Sterilizing Human Immunodeficiency Virus (HIV-1) [1, 3]: 50%; Known Minimum Concentration by Volume for Immediately Sterilizing Human Immunodeficiency Virus (HIV-1) [1, 4]: 50%; Known Minimum Concentration by Volume for Immediately Sterilizing Hepatitis B Virus [2, 3]: 80%; Known Minimum Concentration by Volume for Immediately Sterilizing Hepatitis B Virus [2, 4]: 80%

Q: What does the source list for `OO` [Hydrogen Peroxide]?
A: Known Minimum Concentration by Volume for Immediately Sterilizing Human Immunodeficiency Virus (HIV-1) [1, 3]: 0.3%; Known Minimum Concentration by Volume for Immediately Sterilizing Human Immunodeficiency Virus (HIV-1) [1, 4]: 0.3%

Q: With `CC(C)O` [Isopropyl Alcohol] as the compound, how does the “Known Minimum Concentration by Volume for Immediately Sterilizing Human Immunodeficiency Virus (HIV-1)” value (from here on “Known Minimum Concentration by Volume … (HIV-1)”) [1, 3] read?
A: 30%

Q: And the “Known Minimum Concentration by Volume … (HIV-1)” value [1, 4]?
A: 30%

Q: And the “Known Minimum Concentration by Volume for Immediately Sterilizing Hepatitis B Virus” value [2, 3]?
A: 70%

Q: What about the “Known Minimum Concentration by Volume for Immediately Sterilizing Hepatitis B Virus” value [2, 4] of the same compound?
A: 70%

Q: For ethylphenyl-polyethylene glycol [NP-40], which “Known Minimum Concentration by Volume … (HIV-1)” value [1, 3] is on record?
A: 1%

Q: And the “Known Minimum Concentration by Volume … (HIV-1)” value [1, 4]?
A: 1%
